We go through seven compounds from patent publication US6906205B2, “Spiro and dispiro 1,2,4-trioxolane antimalarials” (Medicines for Malaria Venture MMV, priority 2002, dated 2005).

Values after ≈ are worked out from the molar mass of the structure shown.

For experiment [1], the system named is ANKA strain of Plasmodium berghei. In words: single dose ED50/ED90/ED99 determinations in infected mice. The class given is in vivo. The settings on record: single dose po in SSV, mice, percent reduction in parasitemia on day three post-infection. As to the method: In the single dose ED50/ED90/ED99 determinations, Moro SPF or NMRI mice (group of three) infected with the ANKA strain of Plasmodium berghei were treated on day one post-infection. […] The SSV consists of 0.5% w/v CMC, 0.5% v/v benzyl alcohol, 0.4% v/v Tween 80, and 0.9% w/v sodium chloride in water. Antimalarial activity was measured by percent reduction in parasitemia on day three post-infection. The ED50/ED90 values were calculated by nonlinear fitting.

For experiment [2], the system named is P. berghei ANKA strain. Nature of the experiment: treatment: 3x10 mg/kg p.o. divided dose vs 1x30 mg/kg po single dose in infected mice. The class given is in vivo, Plasmodium berghei. The conditions noted are these: for Cures: survival to day 30 post-infection = cure, cured/treated mice; for Survival (days) p.o. SSV / Activity (%) p.o. SSV: 3 × 10 mg/kg days 1, 2, 3 post-infection; for Activity (%) p.o. SSV: percent reduction of parasitemia day 4. As to the method: Moro NMRI male mice (Fü Albino specific pathogen free) weighing 18±2 g were infected intravenously (i.v.) with 2×10^7 P. berghei ANKA strain-infected erythrocytes from donor mice on day 0 of the experiment. From donor mice with circa 30% parasitemia, heparinized blood was taken and diluted in physiological saline to 10^8 parasitized erythrocytes per ml. An aliquot (0.2 ml) of this suspension was injected i.v. into experimental and control groups of mice. […] Throughout the experiments, mice were kept in groups of three or five animals in Makrolon type II cages in an air-conditioned animal room at 22 to 23° C.
They were administered per os (p.o.) in a total volume of 0.01 ml per gram of mouse. The activity of the compound was determined by a variety of methods outlined in subsequent sections. Survival time was also recorded, and survival to day 30 post-infection was considered to be a cure.
The first experiment conducted consisted of administration of a divided 3×10 mg/kg p.o. dose administered on days 1, 2, and 3 post-infection vs. a single 1×30 mg/kg po dose administered on day 1 post-infection. On day 4 post-infection, blood smears of all animals were prepared and stained with Giemsa. […] Compounds were administered orally in the SSV vehicle.

Experiment [3] relates to P. falciparum K1 strain (Thailand resistant to chloroquine). Nature of the experiment: semiautomated microdilution assay, [3H]-hypoxanthine incorporation, K1 strain. The class given is cell-based, Plasmodium falciparum. The settings on record: K1 strain, 72 h incubation. The method in brief:
(§1)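 Intraerythrocytic stages from unsynchronised stock cultures are exposed to test compounds in a semiautomated microdilution format, and fifty percent inhibitory concentrations are then fitted by logit regression.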

In experiment [4] the test system is P. falciparum NF54 strain (sensitive to standard antimalarials). Nature of the experiment: semiautomated microdilution assay, [3H]-hypoxanthine incorporation, NF54 strain. In kind it is cell-based, Plasmodium falciparum. The conditions noted are these: NF54 strain, 72 h incubation. In outline: as §1
Background: In broth dilution the organism is exposed to a series of concentrations in liquid medium.

Experiment [5] relates to ANKA strain of P. berghei. In words: single dose STI in vivo screen in infected mice. Also on record: species or system Plasmodium berghei. The settings on record: for Survival (days) SSVpo: single po dose in SSV. In outline:
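Groups of 3-5 Moro SPF or NMRI mice infected with the ANKA strain of P. berghei received a single dose of trioxolane on day one post-infection. The compound was given in 3% ethanol and 7% Tween 80 or in SSV (0.5% w/v CMC, 0.5% v/v benzyl alcohol, 0.4% v/v Tween 80, 0.9% w/v sodium chloride in water). Antimalarial activity was scored as percent reduction in parasitemia on day three and as survival time versus untreated controls. Survival to day 30 counted as cure.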

The subject of experiment [6] is Schistosoma mansoni 21-day-old schistosomules. Nature of the experiment: effect on 21-day-old schistosomules in mice. The class given is in vivo. The conditions noted are these: single 200 mg/kg per os, female mice. On the procedure:
All groups were killed 4 weeks after treatment and the liver and intestine were removed and separated. The liver and intestine were compressed and alive male and female worms could be seen and counted. The effect of the compounds was evaluated by mean total and female worm burden.

In experiment [7] the test system is Schistosoma mansoni adult schistosomes (49-day-old). Nature of the experiment: effect on adult schistosomes (49-day-old) in mice. The class given is in vivo. The settings on record: single 400 mg/kg per os. On the procedure:
Mice were infected with 100 Schistosoma mansoni cercariae […]. Each group was treated per os with OZ compounds at single doses of 200, 400, and 600 mg/kg. […] All groups were killed 4 weeks after treatment and the liver and intestine were removed and separated. The liver and intestine were compressed and alive male and female worms could be seen and counted.

The subject of experiment [8] is P. berghei ANKA strain. In words: treatment: 3x3 mg/kg and 3x1 mg/kg po divided doses in infected mice. In kind it is in vivo, Plasmodium berghei. The settings on record: for Activity (%) p.o. SSV: percent reduction of parasitemia day 4. As to the method:
(§2) Moro NMRI male mice (Fü Albino specific pathogen free) weighing 18±2 g were infected intravenously (i.v.) with 2×10^7 P. berghei ANKA strain-infected erythrocytes from donor mice on day 0 of the experiment. From donor mice with circa 30% parasitemia, heparinized blood was taken and diluted in physiological saline to 10^8 parasitized erythrocytes per ml. An aliquot (0.2 ml) of this suspension was injected i.v. into experimental and control groups of mice. In untreated control mice, parasitemia rose regularly to 40 to 50% by day 3 post-infection and 70 to 80% by day 4 post-infection. The mice died between days 5 and 7 post-infection. Throughout the experiments, mice were kept in groups of three or five animals in Makrolon type II cages in an air-conditioned animal room at 22 to 23° C. A diet with p-aminobenzoic acid (PABA) of 45 mg (NAFAG FUTTER© food N^o 9009 PAB-45) per kg of body weight, and tap water is available ad libitum.
(§3) OZ compounds were prepared at an appropriate concentration, either as a solution or a suspension containing SSV (0.5% w/v CMC, 0.5% v/v benzyl alcohol, 0.4% v/v Tween 80, and 0.9% w/v sodium chloride in water). They were administered per os (p.o.) in a total volume of 0.01 ml per gram of mouse. The activity of the compound was determined by a variety of methods outlined in subsequent sections. Survival time was also recorded, and survival to day 30 post-infection was considered to be a cure.
The second experiment consists of administration of divided 3×3 mg/kg and 3×1 mg/kg po doses administered on days 1, 2, and 3 post-infection. On day 4 post-infection, blood smears of all animals were prepared and stained with Giemsa. Parasitemia was determined microscopically, and the difference between the mean value of the control group (taken as 100%) and those of the experimental groups was calculated and expressed as percent reduction. Compounds were administered orally in the SSV vehicle.

The test system of experiment [9] is P. berghei ANKA strain. In words: prophylactic activity, single 100 mg/kg po dose before infection. The class given is in vivo, Plasmodium berghei. The settings on record: for Prophylactic Activity (%): reduction of parasitemia day 3 post-infection. As to the method:
as §2, §3
Prophylactic activities of the compounds were compared after administering po single dose of 100 mg/kg to different groups of five animals at various times before infection. All groups including an untreated control group, were then infected at the same time. Parasitemia was determined for each animal on day 3 post-infection, and percent of reduction of the level of parasitemia compared to levels for animals given no drug is determined.

Where [10] appears, read: 3 × 1 mg/kg days 1, 2, 3 post-infection.
Setting [11] is: 3 × 3 mg/kg days 1, 2, 3 post-infection.

In experiment [1], `CCN(CC)CCCC(C)Nc1ccnc2cc(Cl)ccc12` (stereo not drawn) [CQ, chloroquine, reference compound] displayed an ED99 of 5.9 mg/kg. For the same compound, the Cures with P. berghei ANKA strain [2] (1 × 30 mg/kg) and with P. berghei ANKA strain [2] (3 × 10 mg/kg) was 0/5 in each case.

Turning to `CC(C)(O)C[C@H]1CC[C@]2(CC1)OOC1(O2)C2CC3CC(C2)CC1C3` (stereo partly drawn) [OZ205], in experiment [3], the “IC50 (ng/ml) K1” value came out at 1.5 ng/mL (≈ 4.46 nM). In addition, the “IC50 (ng/ml) NF54” value in experiment [4] was 2.0 ng/mL (≈ 5.94 nM). Also, the “Activity (%) po” value in experiment [5] (percent reduction in parasitemia day 3 post-infection, single 10 mg/kg po in 3% ethanol and 7% Tween 80, mice) is on record as 99.96%. Moreover, the “Activity (%) sc” value in [5] (percent reduction in parasitemia day 3 post-infection, single 10 mg/kg sc in 3% ethanol and 7% Tween 80, mice) is on record as 99.96%. In addition, the “Activity (%) SSVpo” value in [5] (percent reduction in parasitemia day 3 post-infection, single po dose in standard suspending vehicle (SSV), mice) is 99.94%. Moreover, the “Survival (days) po” value in experiment [5] (single 10 mg/kg po in 3% ethanol and 7% Tween 80, untreated control 5.6 ± 0.3) is given as 10.0 days. For the same compound, in experiment [5] (single 10 mg/kg sc in 3% ethanol and 7% Tween 80, untreated control 5.6 ± 0.3), the “Survival (days) sc” value amounted to 9.7 days. Also, the “Survival (days) SSVpo” value in experiment [5] (untreated control 5.6 ± 0.3) is 8.7 days. For the same compound, in [6], the “% reduction of schistosomule growth at day 21 after per os application of 200 mg/kg, FWR (%)” value worked out at 83% and the “% reduction of schistosomule growth at day 21 after per os application of 200 mg/kg, TWR (%)” value is reported as 84%. In addition, in experiment [7], the “% reduction of adult worms growth at day 49 after per os application of 400 mg/kg, TWR (%)” value is 0% and the “adult worms at day 49, per os 400 mg/kg, DEAD WORM (%)” value was 12%. Also, in [1], the 50% effective dose (ED50) stood at 1.6 mg/kg, the ED90 is 3.3 mg/kg and the ED99 is given as 6.0 mg/kg.

`NC[C@H]1CC[C@]2(CC1)OOC1(O2)C2CC3CC(C2)CC1C3` (stereo partly drawn) [OZ209]: in experiment [5] (untreated control 5.6 ± 0.3), the “Survival (days) SSVpo” value is 10.0 days. In addition, in experiment [6], the “% reduction of schistosomule growth at day 21 after per os application of 200 mg/kg, TWR (%)” value was determined as 85%. In experiment [1], this compound had an ED90 of 1.4 mg/kg and an ED99 of 3.0 mg/kg. The “activity (percent reduction of parasitemia)” value with P. berghei ANKA strain [8] (3×1 mg/kg po on days 1, 2, 3 post-infection, SSV) was “greater than 99%”.

As to `NCC(=O)NC[C@H]1CC[C@]2(CC1)OO[C@]1(O2)C2CC3CC(C2)CC1C3` [OZ271], the “IC50 (ng/ml) K1” value in [3] was found to be 0.36 ng/mL (≈ 1.03 nM). The “IC50 (ng/ml) NF54” value in experiment [4] worked out at 0.29 ng/mL (≈ 0.827 nM). Besides, the “Survival (days) 10 mg/kg SSV po” value in experiment [5] (single 10 mg/kg po in SSV) is on record as 8.7 days. For the same compound, in experiment [6], the “% reduction of schistosomule growth at day 21 after per os application of 200 mg/kg, FWR (%)” value is on record as 86% and the “% reduction of schistosomule growth at day 21 after per os application of 200 mg/kg, TWR (%)” value is 88%. In experiment [7], the “% reduction of adult worms growth at day 49 after per os application of 400 mg/kg, TWR (%)” value is 0% and the “adult worms at day 49, per os 400 mg/kg, DEAD WORM (%)” value is on record as 6%. In addition, in the experiment with P. berghei ANKA strain [9] (single 100 mg/kg po before infection), the “duration of prophylactic protection” value was 3 days.

With `CC(C)(N)C(=O)NCC1CCC2(CC1)OOC1(O2)C2CC3CC(C2)CC1C3` (stereo not drawn) [compound 281], the “Survival (days) p.o. SSV” value in the experiment on P. berghei ANKA strain [8] (setting [10]) is recorded as 13 days; with P. berghei ANKA strain [8] (setting [11]), 12.4 days. For the same compound, the figures for the “Activity (%) p.o. SSV” value in the experiment with P. berghei ANKA strain [8] (setting [10]) and with P. berghei ANKA strain [8] (setting [11]) were 92% and 100%, respectively. The “Prophylactic Activity (%)” value in the experiment on P. berghei ANKA strain [9] (single 100 mg/kg po 24 h before infection) was found to be 99.23%; in the experiment with P. berghei ANKA strain [9] (single 100 mg/kg po 48 h before infection), 45%; in the experiment on P. berghei ANKA strain [9] (single 100 mg/kg po 72 h before infection), 8%; with P. berghei ANKA strain [9] (single 100 mg/kg po at 0 h), 100%.

Regarding `CS(=O)(=O)O.c1cc(OCC2CCC3(CC2)OOC2(O3)C3CC4CC(C3)CC2C4)ccn1` (stereo not drawn) [compound 301], the figures for the “Survival (days) p.o. SSV” value in the experiment on P. berghei ANKA strain [2], in the experiment with P. berghei ANKA strain [8] (setting [10]) and in the experiment with P. berghei ANKA strain [8] (setting [11]) were above 30 days, 8.8 days and 23 days, respectively. Also, the “Activity (%) p.o. SSV” value with P. berghei ANKA strain [2] was 100%; with P. berghei ANKA strain [8] (setting [10]), 58%; in the experiment on P. berghei ANKA strain [8] (setting [11]), 100%.

Take `Cc1ccc(S(=O)(=O)O)cc1.NC1CCC(NC(=O)CC2CCC3(CC2)OOC2(O3)C3CC4CC(C3)CC2C4)CC1` (stereo not drawn) [compound 315]: the “Survival (days) p.o. SSV” value with P. berghei ANKA strain [2] was above 30 days; in the experiment with P. berghei ANKA strain [8] (setting [10]), 12.2 days; with P. berghei ANKA strain [8] (setting [11]) it was 22 days. Also, the “Activity (%) p.o. SSV” value with P. berghei ANKA strain [2] was found to be 100%; with P. berghei ANKA strain [8] (setting [10]), 81%; in the experiment on P. berghei ANKA strain [8] (setting [11]), 99.99%.

For orientation: ED50 means the dose at which the effect has come halfway, by size or by number of responders.
